According to patent US6972319B1, “Pituitary adenylate cyclase activating peptide (PACAP)receptor 3 (R3) agonists and their pharmacological methods of use” (priority 1999, dated 2005):
No end group written: not given here.

Key:
[1] = target: T1, PACAP-R2 (Homo sapiens, UniProt P32241); assay: Cyclic AMP SPA on CHO cells transfected with PACAP-R2; assay type: cell-based; conditions: cAMP SPA, concentration at which 50% of maximum PACAP27 activity is achieved, NA = no detectable activities, read-out: R2 EC50
T1 construct: expressed in transfected cells; host or cells: CHO cells
T1 sequence (P32241 31-457): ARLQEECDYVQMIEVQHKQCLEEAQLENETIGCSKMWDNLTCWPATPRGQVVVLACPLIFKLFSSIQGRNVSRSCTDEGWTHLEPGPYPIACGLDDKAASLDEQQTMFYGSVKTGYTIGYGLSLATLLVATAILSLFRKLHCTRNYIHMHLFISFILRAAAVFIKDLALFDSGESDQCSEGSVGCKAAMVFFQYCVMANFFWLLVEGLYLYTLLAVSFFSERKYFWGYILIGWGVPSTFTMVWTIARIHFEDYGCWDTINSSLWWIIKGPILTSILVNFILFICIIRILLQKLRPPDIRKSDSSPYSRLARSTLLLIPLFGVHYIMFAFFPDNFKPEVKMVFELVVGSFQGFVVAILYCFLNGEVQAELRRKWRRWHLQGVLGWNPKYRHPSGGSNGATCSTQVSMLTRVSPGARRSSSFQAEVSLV
Method: (§1) CHO cells expressing the PACAP R3 were plated in 96-well plates (Costar) at 8×10^4 cell/well and grown at 37 C. for 24 hours in α MEM+nucleosides+glutamine (Giobco BRL), 10% FBS, 100 μg/ml Pen/Strep, 0.3 mg/ml glutamine, 1 mM HEPES, 0.5 mg/ml Geneticin (Gibco BRL). The media was removed and the plates were washed with PBS. The cells were incubated with a peptide, in Hepes-PBS-BSA with 0.4 mg/mlSoybean Trypsin Inhibitor, 0.5 mg/ml Bacitracin, 100 uM IBMX, for 15 min at 37 C. Cyclic AMP in the cell extracts was quantitated using the cAMP SPA direct screening assay system (Amersham Pharmacia Biotech Inc, Piscataway, N.J.,). The peptides shown in Table 3 were assayed for cAMP activity.
(§2) EC50 is defined as the concentration of the polypeptide at which 50% of maximum PACAP27 activity is achieved. “NA” denotes no detectable activities. “R3 Selectivity” is derived from the ratio of EC50 at R2 versus EC50 at R3.

[2] = target: T2, PACAP-R3 (Homo sapiens, UniProt P41587); assay: Cyclic AMP SPA on CHO cells expressing PACAP R3; assay type: cell-based; set-up: expressed in transfected cells; host or cells: CHO cells (Geneticin selection); conditions: for EC50: cAMP SPA, CHO cells transfected with PACAP-R3, concentration at which 50% of maximum PACAP27 activity is achieved, NA = no detectable activities, read-out: R3 EC50; for R3 Selectivity: ratio of EC50 at R2 versus EC50 at R3
T2 sequence (P41587 24-438): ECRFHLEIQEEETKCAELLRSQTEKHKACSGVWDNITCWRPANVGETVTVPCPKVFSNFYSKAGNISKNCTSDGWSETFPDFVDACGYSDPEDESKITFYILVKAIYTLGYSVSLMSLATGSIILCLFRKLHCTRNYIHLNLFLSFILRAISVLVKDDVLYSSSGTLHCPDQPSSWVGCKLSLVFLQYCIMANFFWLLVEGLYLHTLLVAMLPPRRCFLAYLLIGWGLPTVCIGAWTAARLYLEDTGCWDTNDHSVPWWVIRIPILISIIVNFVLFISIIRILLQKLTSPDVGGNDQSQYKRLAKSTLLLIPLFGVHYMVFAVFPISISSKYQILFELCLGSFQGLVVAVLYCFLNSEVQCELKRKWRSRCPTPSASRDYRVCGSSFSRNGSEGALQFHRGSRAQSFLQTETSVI
Method: as §1, §2

Compound: HSDAVFTDNYTRLRKQMAAKKYLNSIKNKV [Peptide R3P169]
- EC50 [1]: 60 nM
- EC50 [2]: 0.2 nM
- R3 Selectivity [2]: 300

Compound: HSDGIFTDSYSRYRKQMAVKKYLSAVRHGQT-NH2 [Peptide R3P15]
- EC50 [1]: 12 nM
- EC50 [2]: 5 nM
- R3 Selectivity [2]: 2

Compound: HSDAVFTDNYTRLRKQLAVKKYLNSILN [Peptide R3P46]
- EC50 [1]: 0.4 nM
- EC50 [2]: 0.06 nM
- R3 Selectivity [2]: 7

Compound: HSDAVFTDNYTRLRKQMAAKKYLNSIKNKE [Peptide R3P156]
- EC50 [1]: 100 nM
- EC50 [2]: 1 nM
- R3 Selectivity [2]: 100

Compound: HSDAVFTDNYTRLRKQMAYKKYLNSIKNKR [Peptide R3P115]
- EC50 [1]: 300 nM
- EC50 [2]: 6 nM
- R3 Selectivity [2]: 50

Compound: HSDAVFTDNYTRLRKQMAAHKYLNSIKNKRY [Peptide R3P73]
- EC50 [1]: 50 nM
- EC50 [2]: 0.3 nM
- R3 Selectivity [2]: 170

Compound: H-HSDAVFTDNYTRLRKQMAKKKYLNSIKNKR [Peptide R3P104]
- EC50 [1]: 100 nM
- EC50 [2]: 0.2 nM
- R3 Selectivity [2]: 500

Compound: HSDAVFTDNYTRLRKQMAGKKYLNSIKNRI [rR3P175]
- EC50 [1]: 400 nM
- EC50 [2]: 2.2 nM
- R3 Selectivity [2]: 180

Compound: H-HSDAVFTDNYTRLRKQMAAKHYLNSIKNKRY [Peptide R3P74]
- EC50 [1]: 90 nM
- EC50 [2]: 0.6 nM
- R3 Selectivity [2]: 150

Compound: HSDAVFTDNYTRLRKQMAAKKYLNSIKNKA [Peptide R3P153]
- EC50 [1]: 40 nM
- EC50 [2]: 0.2 nM
- R3 Selectivity [2]: 200

Compound: HSDGIFTDSYSRYRKQMAVKKYLAKVL-NH2 [PAC25]
- EC50 [1]: 0.13 nM
- EC50 [2]: 0.04 nM
- R3 Selectivity [2]: 3

Compound: HSDAVFTDNYTRLRKQVAVKKYLQSILKK [Peptide R3P89]
- EC50 [1]: 0.9 nM
- EC50 [2]: 0.06 nM
- R3 Selectivity [2]: 15

Compound: HSDAVFTDNYTRLRKQMAVKKYLNDLKKGGT [Peptide R3P14]
- EC50 [1]: 50 nM
- EC50 [2]: 17 nM
- R3 Selectivity [2]: 3

Compound: HSDAVFTDNYTRLRKQMAAKKYLNSIKNKG [Peptide R3P158]
- EC50 [1]: 6 nM
- EC50 [2]: 0.07 nM
- R3 Selectivity [2]: 90

Compound: HSDAVFTDNYTRLRKQMAAKKYLNSIENKR [Peptide R3P119]
- EC50 [1]: 15 nM
- EC50 [2]: 0.5 nM
- R3 Selectivity [2]: 30

Compound: HSDAVFTDNYTRLRKQMAAKKYLNSILN [Peptide R3P47]
- EC50 [1]: 0.7 nM
- EC50 [2]: 0.12 nM
- R3 Selectivity [2]: 6

Compound: HSDAVFTDNYTRLRKQVAAKKYLNSIKNKRY [Peptide R3P68]
- EC50 [1]: 130 nM
- EC50 [2]: 0.5 nM
- R3 Selectivity [2]: 260

Compound: HSDAVFTDNYTRLRKQLAAKKYLNDIKK [Peptide R3P33]
- EC50 [1]: > 100 nM
- EC50 [2]: 0.5 nM
- R3 Selectivity [2]: >200

Compound: H-HSDGIFTDSYSEYRKQMAVKKYLAAVL-NH2 [PAC12]
- EC50 [1]: 150 nM
- EC50 [2]: 3 nM
- R3 Selectivity [2]: 50

Compound: HSDAVFTDNYTRLRKQMAAKKYLNSIRNRI [rR3P189]
- EC50 [1]: 1.3 nM
- EC50 [2]: 0.04 nM
- R3 Selectivity [2]: 30

Compound: HSDAVFTDNYTRLRKQMAAKKYLQSIKNKRY [Peptide R3P69]
- EC50 [1]: 90 nM
- EC50 [2]: 0.5 nM
- R3 Selectivity [2]: 190

Compound: HSDAVFTDNYTRLRKQMAAKKYLNSIKNLR [Peptide R3P142]
- EC50 [1]: 6 nM
- EC50 [2]: 0.2 nM
- R3 Selectivity [2]: 30

Compound: HSDAVFTDNYTRLRKQMAAKKYLNSIKNMR [Peptide R3P143]
- EC50 [1]: 6 nM
- EC50 [2]: 0.2 nM
- R3 Selectivity [2]: 30

Compound: HSDAVFTDNYTRLRKQMAAKKYLNSIKKKR [Peptide R3P53]
- EC50 [1]: 500 nM
- EC50 [2]: 0.2 nM
- R3 Selectivity [2]: 2500

Compound: HSDAVFTDNYTRLRKQMAAKKYLNSILK [Peptide R3P50]
- EC50 [1]: 0.7 nM
- EC50 [2]: 0.13 nM
- R3 Selectivity [2]: 6

Compound: HSDAVFTDNYTRLRKQVAAKKYLQSILKK [Peptide R3P85]
- EC50 [1]: 5 nM
- EC50 [2]: 0.18 nM
- R3 Selectivity [2]: 30

Compound: H-HSDAVFTDNYTRLRKQMAAKKYLNSIDNKR [Peptide R3P118]
- EC50 [1]: 15 nM
- EC50 [2]: 0.5 nM
- R3 Selectivity [2]: 30

Compound: HSDAVFTDNYTRLRKQVAAKKYLNSIKNKRY [Peptide R3P79]
- EC50 [1]: 100 nM
- R3 Selectivity [2]: 200

Compound: HSDAVFTDNYTRLRKQIAAKKYLQTIKK [Peptide R3P61]
- EC50 [1]: 110 nM
- EC50 [2]: 0.8 nM
- R3 Selectivity [2]: 140

Compound: HSDAVFTDNYTRLRKQMAAKKYLNSIKKK [Peptide R3P54]
- EC50 [1]: > 100 nM
- EC50 [2]: 0.5 nM
- R3 Selectivity [2]: >200

Compound: HSDAVFTDNYTRLRKQMAVKKYLNDILN [Peptide R3P48]
- EC50 [1]: 1 nM
- EC50 [2]: 0.13 nM
- R3 Selectivity [2]: 8

Compound: HSDGIFTDSYKRYRKQMAVKKYLAAVL-NH2 [PAC11]
- EC50 [1]: 10 nM
- EC50 [2]: 140 nM
- R3 Selectivity [2]: 0.1

Compound: HSDAVFTDQYTRLRKQLAAHKYLNTIKNKRY [Peptide R3P75]
- EC50 [1]: > 150 nM
- EC50 [2]: 0.3 nM
- R3 Selectivity [2]: >500

Compound: HSDAVFTDNYTRLRKQMAAKKYLNSIKNQR [Peptide R3P146]
- EC50 [1]: 30 nM
- EC50 [2]: 0.3 nM
- R3 Selectivity [2]: 100

Compound: CC[C@H](C)[C@H](NC(=O)[C@H](CO)NC(=O)[C@H](CC(N)=O)NC(=O)[C@H](CC(C)C)NC(=O)[C@H](Cc1ccc(O)cc1)NC(=O)[C@H](CCCCN)NC(=O)[C@H](CCCCN)NC(=O)[C@H](C)NC(=O)[C@H](C)NC(=O)[C@H](CCSC)NC(=O)[C@H](CCC(N)=O)NC(=O)[C@H](CCCCN)NC(=O)[C@H](CCCNC(=N)N)NC(=O)[C@H](CC(C)C)NC(=O)[C@H](CCCNC(=N)N)NC(=O)[C@@H](NC(=O)[C@H](Cc1ccc(O)cc1)NC(=O)[C@H](CC(N)=O)NC(=O)[C@H](CC(=O)O)NC(=O)[C@@H](NC(=O)[C@H](Cc1ccccc1)NC(=O)[C@@H](NC(=O)[C@H](C)NC(=O)[C@H](CC(=O)O)NC(=O)[C@H](CO)NC(=O)[C@@H](N)Cc1c[nH]cn1)C(C)C)[C@@H](C)O)[C@@H](C)O)C(=O)N[C@@H](CCCCN)C(=O)N[C@@H](CC(N)=O)C(=O)N[C@@H](CCCCN)C(=O)N[C@@H](Cc1c[nH]c2ccccc12)C(=O)O [Peptide R3P170]
- EC50 [1]: 20 nM
